Tests used:
N. europaea = test: standard nitrification inhibition assay (NO2- production, Griess); type: cell-based, Nitrosomonas europaea; conditions: [NH4+]=3 mM, [inhibitor]=0.3 mM (10 mol %), pH 7.5, 30° C., 60 min
Protocol: (§1) Cells of N. multiformis and N. europaea were cultivated to the mid-exponential growth phase (OD600=0.1, [NO2^−] approximately 800 μM) and harvested by filtration onto 0.2 μm membrane filters (Mixed Cellulose Ester (MCE), Sigma Aldrich). The cells were washed with 2×100 mL of 0.1 M sodium phosphate buffer (NaPB), containing 0.2 mM MgSO4 at pH 7.5. The cells were washed from the filter paper by transferring it to a sterile 50 mL tube and resuspending in NaPB (15 mL), followed by 5 s of vortexing (Ratek, Australia) and 3 s of sonication (Vevor, Australia). […] Experiments were performed in triplicate.
(§2) In a deep 96-well plate (2 mL capacity), 980 μL of the bacterial inoculum (OD600=0.03) was added to the inhibitor (10 μL, 30 mmol L^−1 in Milli-Q water), the solutions were mixed thoroughly and pre-incubated in the dark for 5 minutes at 100 rpm and 30° C. (NH4)2SO4 (10 μL, 150 mM, from a prepared sterile solution containing 19.8 g L^−1 (NH4)2SO4 in Milli-Q water) was then added using a multi-channel pipette. The plate was covered with a with an O2 permeable membrane to ensure aeration (Breathe-Easy® sealing membrane, Sigma Aldrich) and incubated in a temperature-regulated rotary incubator (Ratek, Australia) in the dark for 60 minutes at 30° C. and 100 rpm. An aliquot of the reaction solution ([…]) was transferred to a 96-well spectrophotometric plate to which 50 µL of Griess reagent was added. The colour was allowed to develop for 15 minutes at room temperature, and the absorbance was measured at 540 nm. Each assay was accompanied by control treatments to determine the 0% and 100% NO2 signal. The percentage inhibition was calculated according to eqn. 1 from the NO2 production of the cells in NaPB (i) without additive (‘untreated cells’: 0% signal), (ii) with [NH4^+]=3 mM (‘uninhibited’ cells: 100% signal) and (iii) with [NH4^+]=3 mM and [inhibitor]=0.3 mM and 0.03 mM (10 mol % and 1 mol % of [NH4^+], ‘inhibited cells’). Experiments were performed in triplicate.

[1] = biological target: T1, hydroxylamine oxireductase (HOA) (Nitrosomonas europaea, UniProt Q50925); test: standard nitrification inhibition assay with NH2OH as substrate; type: cell-based, N. europaea; conditions: substrate NH2OH 3 mM, [inhibitor]=0.3 mM, pH 7.5, 30° C., 60 min; read-out: % Inhibition NE
T1 construct: N. europaea and N. multiformis contain naturally both enzymes; endogenous in cells; host or cells: N. europaea pure culture (whole cells in NaPB)
T1 sequence (Q50925 25-570): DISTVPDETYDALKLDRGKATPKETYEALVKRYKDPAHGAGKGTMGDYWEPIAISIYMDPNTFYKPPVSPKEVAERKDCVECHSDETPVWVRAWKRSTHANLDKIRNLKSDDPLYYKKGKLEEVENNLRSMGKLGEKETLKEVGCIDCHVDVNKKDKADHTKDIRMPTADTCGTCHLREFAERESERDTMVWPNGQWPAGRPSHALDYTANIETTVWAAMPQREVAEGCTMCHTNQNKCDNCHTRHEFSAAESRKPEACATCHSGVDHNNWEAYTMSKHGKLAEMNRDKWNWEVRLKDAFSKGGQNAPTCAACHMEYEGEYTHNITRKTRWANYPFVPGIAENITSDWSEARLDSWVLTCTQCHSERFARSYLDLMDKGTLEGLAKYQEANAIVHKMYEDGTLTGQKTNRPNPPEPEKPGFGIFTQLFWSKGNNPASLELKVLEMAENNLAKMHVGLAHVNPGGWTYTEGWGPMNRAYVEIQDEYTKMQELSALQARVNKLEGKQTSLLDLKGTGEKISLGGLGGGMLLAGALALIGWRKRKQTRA

N. multiformis = test: standard nitrification inhibition assay (NO2- production, Griess); type: cell-based, Nitrosospira multiformis; conditions: [NH4+]=3 mM, [inhibitor]=0.3 mM (10 mol %), pH 7.5, 30° C., 60 min
Protocol: as §1, §2

[2] = tested on: hydroxylamine oxireductase (HOA); test: standard nitrification inhibition assay with NH2OH as substrate; type: cell-based, N. multiformis; conditions: substrate NH2OH 3 mM, [inhibitor]=0.3 mM, pH 7.5, 30° C., 60 min
[3] = tested on: N. europaea and N. multiformis; test: activity recovery assay (binding studies); type: cell-based; conditions: [inhibitor]=1.5 mM, 30 min, then washed and re-incubated with (NH4)2SO4
Protocol: Cells were harvested using the ‘standard cell harvesting protocol’. The bacteria solution was adjusted to an OD600=0.8 (100 μg/L protein) and 980 μL aliquots were transferred to 1.5 mL centrifuge tubes (Eppendorf®, polypropylene). 10 μL of the inhibitor solution (150 mM in DMSO) was added and pre-equilibrated for 5 min; 10 μL of aqueous 150 mM (NH4)2SO4 (final concentration in tube=3 mM) was added by via multichannel pipette to ensure simultaneous addition in each tube. The tubes were incubated in a temperature-regulated rotary incubator (Ratek, Australia) for 30 min at 30° C. at 100 rpm in the dark. After 30 minutes, a 50 μL aliquot was transferred to a 96-well plate (Greiner Cellstar®, polystyrene), 50 μL of Griess reagent was added and the mixture incubated for 15 minutes. The absorbance was measured photometrically (Clariostar® BMG Labtech, Australia) at 540 nm. The cells were washed repeatedly (3×) by periodic centrifuging (Boeco, Germany; 10.000 rpm, 10 min) and resuspending the pellet in 1 mL NaPB. After the final centrifuging step, the pellet was resuspended in 990 μL NaPB and re-incubated with (NH4)2SO4 (10 μL of an aqueous 150 mM solution), and the NO2 concentration was measured under the previously described conditions. Each assay was accompanied by control treatments to determine the 0% and 100% NO2 signal. […]

## C#CCn1cc(C)nn1 [Compound 4-MPT, 4-Methyl-1-(prop-2-yn-1yl)-1H-1,2,3-triazole]
N. europaea
  % Inhibition NE: 77%
[1]
  inhibition at 300 µM: 28 ± 3%
N. multiformis
  % Inhibition NM: 75%
[2]
  % Inhibition NM: 33 ± 4%
[3]
  recovery of activity of cells after three washing steps: could not be recovered

Source: patent US20260215425A1, “NITRIFICATION INHIBITORS” (The University of Melbourne, priority 2022, published 2026)
